# Reference: patent US20240228499A1, “MASP-2 INHIBITORS AND METHODS OF USE” (Omeros Corporation, priority 2022, published 2024)
# Where a name gives a salt, the structure may show the parent alone.
# Legend:
# Type in all cases: biochemical
# [1] = test system: Lectin Pathway Activation (LPA) in human serum; experiment: Lectin pathway activation (LPA) assay in human serum, C4 deposition on mannan-coated plate; settings: 1% pooled human serum, 55 minutes, room temperature
# Protocol: A Microtiter ELISA plate (Nunc-Maxi Sorp; Sigma-Aldrich®, USA) was coated with mannan sourced from Saccharomyces cerevisiae (Sigma-Aldrich®, USA) in a coating buffer comprising 33.3 mM Na2CO3 and 166.67 mM NaHCO3. The plates were incubated at room temperature overnight. Subsequently, the plates were blocked with a 5% bovine serum albumin solution (Sigma-Aldrich®, USA) prepared in PBST for 2 hours at room temperature with agitation. Varying concentrations of MASP-2 inhibitors were dispensed onto the empty plate.
# To perform the assay, pooled human serum was diluted to 1% in a solution of 20 mM HEPES (pH=7.4), 140 mM NaCl, and 1 mM MgCl2. Then, 40 μl of the diluted human serum was dispensed into each well of the Microtiter ELISA plate and incubated for 55 minutes at room temperature. The C4 deposition on the mannan-coated surface was stopped using an EDTA stop solution (20 mM HEPES, pH=7.4, 140 mM NaCl, and 150 mM EDTA). Subsequently, rabbit anti-Human C4c antibody (Agilent Technologies, USA) prepared in PBST was added, and the plates were incubated at room temperature for 30 minutes with agitation, then washed with PBST, and Goat anti-rabbit IgG(H+L) HRP-conjugated (Southern Biotech®, USA) was added. The plates were again incubated at room temperature for 30 minutes with agitation, and then were washed with PBST. Following this, the Amplex® UltraRed® (Thermo Fischer Sci, USA) substrate solution was added for 16 minutes, followed by the addition of the Amplex® UltraRed® stop solution. The plates' fluorescence was measured using an i3× microplate reader (Molecular Devices, USA) with excitation at 550 nm and emission at 580 nm. The raw data generated from the plate reader was exported to GraphPad Prism® (version 10.0.3), and the non-linear regression curve was generated using the 4-parameter logistic fit equation. All data are reported as pIC50 with a 95% confidence interval.
# MASP-2 (CCP1-CCP2-SP) = target: T1, MASP-2 (CCP1-CCP2-SP) (Homo sapiens, UniProt O00187); experiment: Enzymatic assay for MASP-2 inhibitory activity (fluorogenic substrate); settings: room temperature, 20 mM Hepes pH 7.4, 20 min
# T1 construct: 15 μL of Enzyme MASP-2 (CCP1-CCP2-SP) in Assay Buffer
# Procedure, shortened: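 Human MASP-2 CCP1-CCP2-SP construct with a C2-cleavage-site fluorogenic substrate in 20 mM HEPES pH 7.4, 140 mM NaCl, 0.1% Tween 20, 20 min at room temperature before acetic acid stop. Activity normalised to DMSO and no-enzyme controls; IC50 taken as equivalent to Ki under linear conditions.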
# human a-thrombin = target: T2, human a-thrombin (Homo sapiens, UniProt P00734); experiment: Enzymatic assay for thrombin (fluorogenic peptide substrate Boc-VPR-AMC); settings: room temperature, 20 mM Hepes pH 7.4, 20 min
# T2 construct: enzyme (human a-thrombin (BioPharm® Lab.)); purchased BioPharm Lab
# Procedure, shortened: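 Human α-thrombin was incubated with serially diluted compound and fluorogenic substrate Boc-VPR-AMC in 20 mM Hepes pH 7.4, 140 mM NaCl, 0.1% Tween 20 at room temperature. The reaction was stopped after 20 min with 0.1 M acetic acid and fluorescence read. % activity was normalized to DMSO and no-enzyme controls, and IC50 was taken as equivalent to Ki.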
# T1 sequence (O00187 287-686 limits assumed): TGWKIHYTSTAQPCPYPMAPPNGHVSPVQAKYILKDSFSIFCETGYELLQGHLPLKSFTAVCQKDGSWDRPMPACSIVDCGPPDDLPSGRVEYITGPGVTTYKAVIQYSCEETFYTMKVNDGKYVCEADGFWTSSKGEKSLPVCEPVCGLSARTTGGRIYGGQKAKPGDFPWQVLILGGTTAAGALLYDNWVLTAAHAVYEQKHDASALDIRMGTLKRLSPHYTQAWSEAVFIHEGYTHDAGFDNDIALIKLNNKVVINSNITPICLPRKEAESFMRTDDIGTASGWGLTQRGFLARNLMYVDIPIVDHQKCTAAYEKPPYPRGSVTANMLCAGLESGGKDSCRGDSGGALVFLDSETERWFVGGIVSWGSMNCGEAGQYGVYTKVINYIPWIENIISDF
SMILES,IC50 [1] [nM],Ki (MASP-2 (CCP1-CCP2-SP)) [nM],Ki (human a-thrombin) [nM]
Cc1cc(C)cc(CNc2cnc3n(c2=O)[C@H](C(=O)N[C@H](C)c2cc4c(s2)CNC4)CC3)c1 [Compound 106],< 500,< 500,> 25000
Cc1ccc(C)c(CNc2cnc3n(c2=O)[C@H](C(=O)N[C@@H]2CCc4nc(N)ccc42)CC3)c1 [Compound 94],< 500,< 500,500 to 2500
"N#Cc1cc(CNc2cnc3n(c2=O)[C@H](C(=O)N[C@@H]2CCc4nc(N)ccc42)CC3)cc(C(F)(F)F)c1 [Compound 90, (S)-N-((R)-2-amino-6,7-dihydro-5H-cyclopenta[b]pyridin-5-yl)-3-((3-cyano-5-(trifluoromethyl)benzyl)amino)-4-oxo-4,6,7,8-tetrahydropyrrolo[1,2-a]pyrimidine-6-carboxamide]",< 500,< 500,500 to 2500
Cc1ccc(F)c(CNc2cnc3n(c2=O)[C@H](C(=O)N[C@@H]2CCc4nc(N)ccc42)CC3)c1 [Compound 95],< 500,< 500,500 to 2500
"Cc1nc(N)ccc1CNC(=O)[C@@H]1CCc2ncc(NCc3cccc(OC(F)F)c3)c(=O)n21 [Compound 75, (S)-N-((6-amino-2-methylpyridin-3-yl)methyl)-3-((3-(difluoromethoxy)benzyl)amino)-4-oxo-4,6,7,8-tetrahydro-pyrrolo[1,2-a]pyrimidine-6-carboxamide]",< 500,< 500,500 to 2500
CS(=O)(=O)c1cccc(CNc2cnc3n(c2=O)[C@H](C(=O)N[C@@H]2CCc4nc(N)ccc42)CC3)c1 [Compound 97],< 500,< 500,500 to 2500
Nc1ccc2c(n1)CC[C@H]2NC(=O)[C@@H]1CCc2ncc(NCc3cccc(C(F)(F)F)c3)c(=O)n21 [Compound 105],< 500,< 500,2500 to 10000
"Cc1nc(N)ccc1CNC(=O)[C@@H]1CCc2ncc(NCc3cccc(F)c3)c(=O)n21 [Compound 53, (S)—N-((6-amino-2-methylpyridin-3-yl)methyl)-3-((3-fluorobenzyl)amino)-4-oxo-4,6,7,8-tetrahydropyrrolo[1,2-a]pyrimidine-6-carboxamide]",< 500,< 500,500 to 2500
"Cc1nc(N)ccc1CNC(=O)[C@@H]1CCc2ncc(NCc3cccc(N4CCOCC4)c3)c(=O)n21 [Compound 11, (S)-N-((6-amino-2-methylpyridin-3-yl)methyl)-3-((3-morpholinobenzyl)amino)-4-oxo-4,6,7,8-tetrahydropyrrolo[1,2-a]pyrimidine-6-carboxamide, hydrochloride]",,< 500,500 to 2500
"CCN(Cc1cc(C)cc(OC)c1)c1cnc2n(c1=O)[C@H](C(=O)NCc1ccc(N)nc1C)CC2 [Compound 67, (S)—N-((6-amino-2-methylpyridin-3-yl)methyl)-3-(ethyl(3-methoxy-5-methylbenzyl)amino)-4-oxo-4,6,7,8-tetrahydropyrrolo[1,2-a]pyrimidine-6-carboxamide]",,500 to 2500,10000 to 25000
"Cc1nc(N)ccc1CNC(=O)[C@@H]1CCc2ncc(NCc3cccc(C(F)F)c3)c(=O)n21 [Compound 71, (S)—N-((6-amino-2-methylpyridin-3-yl)methyl)-3-((3-(difluoromethyl)benzyl)amino)-4-oxo-4,6,7,8-tetrahydropyrrolo[1,2-a]pyrimidine-6-carboxamide]",,< 500,500 to 2500
Cc1cc(F)cc(CNc2cnc3n(c2=O)[C@H](C(=O)N[C@@H]2CCc4nc(N)ccc42)CC3)c1 [Compound 96],,< 500,500 to 2500
C#Cc1cccc(CNc2cnc3n(c2=O)[C@H](C(=O)N[C@@H]2CCc4nc(N)ccc42)CC3)c1 [Compound 98],,< 500,< 500
"COc1cc(F)cc(CNc2cnc3n(c2=O)[C@H](C(=O)NCc2ccc(N)nc2C)CC3)c1 [Compound 49, (S)-N-((6-amino-2-methylpyridin-3-yl)methyl)-3-((3-fluoro-5-methoxybenzyl)amino)-4-oxo-4,6,7,8-tetrahydropyrrolo[1,2-a]pyrimidine-6-carboxamide, di-trifluoroacetate]",,< 500,< 500
Cc1cc(C)cc(CNc2cnc3n(c2=O)[C@H](C(=O)N[C@H](C)c2ccc(N)nc2)CC3)c1 [Compound 16],,< 500,> 25000
"Cc1nc(N)ccc1CNC(=O)[C@@H]1CCc2ncc(NCc3ccc(F)cc3)c(=O)n21 [Compound 52, (S)—N-((6-amino-2-methylpyridin-3-yl)methyl)-3-((4-fluorobenzyl)amino)-4-oxo-4,6,7,8-tetrahydropyrrolo[1,2-a]pyrimidine-6-carboxamide]",,< 500,2500 to 10000
Nc1ccc2c(n1)CC[C@H]2NC(=O)[C@@H]1CCc2ncc(NCc3ccc4c(c3)OCC4)c(=O)n21 [Compound 99],,< 500,2500 to 10000
"COc1cc(C)cc(CNc2cnc3n(c2=O)[C@H](C(=O)NCc2ccc(N)nc2C)CC3)c1 [Compound 2, (S)—N-((6-amino-2-methylpyridin-3-yl)methyl)-3-((3-methoxy-5-methylbenzyl)amino)-4-oxo-4,6,7,8-tetrahydropyrrolo[1,2-a]pyrimidine-6-carboxamide]",,< 500,< 500
"Cc1ccc(CNc2cnc3n(c2=O)[C@H](C(=O)N[C@@H]2CCc4nc(N)ccc42)CC3)cc1C#N [Compound 88, (S)-N-((R)-2-amino-6,7-dihydro-5H-cyclopenta[b]pyridin-5-yl)-3-((3-cyano-4-methylbenzyl)amino)-4-oxo-4,6,7,8-tetrahydro-pyrrolo[1,2-a]pyrimidine-6-carboxamide]",,< 500,500 to 2500
"Cc1cc(CNc2cnc3n(c2=O)[C@H](C(=O)N[C@H](C)c2ccc(N)nc2)CC3)cc(C(F)(F)F)c1 [Compound 51, (S)—N—((R)-1-(6-aminopyridin-3-yl)ethyl)-3-((3-methyl-5-(trifluoromethyl)benzyl)amino)-4-oxo-4,6,7,8-tetrahydropyrrolo[1,2-a]pyrimidine-6-carboxamide. DI-trifluoroacetate]",,< 500,> 25000
"Cc1ccc(F)c(CNc2cnc3n(c2=O)[C@H](C(=O)NCc2ccc(N)nc2C)CC3)c1 [Compound 3, (S)—N-((6-amino-2-methylpyridin-3-yl)methyl)-3-((2-fluoro-5-methylbenzyl)amino)-4-oxo-4,6,7,8-tetrahydropyrrolo[1,2-a]pyrimidine-6-carboxamide]",,< 500,500 to 2500
"N#CCc1cccc(CNc2cnc3n(c2=O)[C@H](C(=O)N[C@@H]2CCc4nc(N)ccc42)CC3)c1 [Compound 91, (S)-N-((R)-2-amino-6,7-dihydro-5H-cyclopenta[b]pyridin-5-yl)-3-((3-(cyanomethyl)benzyl)amino)-4-oxo-4,6,7,8-tetrahydro-pyrrolo[1,2-a]pyrimidine-6-carboxamide]",,< 500,500 to 2500
"Cc1cc(F)cc(CNc2cnc3n(c2=O)[C@H](C(=O)NCc2ccc(N)nc2C)CC3)c1 [Compound 34, (S)-N-((6-amino-2-methylpyridin-3-yl)methyl)-3-((3-fluoro-5-methylbenzyl)amino)-4-oxo-4,6,7,8-tetrahydropyrrolo[1,2-a]pyrimidine-6-carboxamide, di-trifluoroacetate]",,< 500,< 500
"Cc1cc(C)cc(CNc2cnc3n(c2=O)[C@H](C(=O)NCc2cc(Cl)ccc2-n2cnnn2)CC3)c1 [Compound 5, (S)—N-(5-chloro-2-(1H-tetrazol-1-yl)benzyl)-3-((3,5-dimethylbenzyl)amino)-4-oxo-4,6,7,8-tetrahydropyrrolo[1,2-a]pyrimidine-6-carboxamide trifluoroacetic acid]",,< 500,< 500
"Cc1nc(N)ccc1CNC(=O)[C@@H]1CCc2ncc(NCc3ccccc3C(F)F)c(=O)n21 [Compound 27, (S)—N-((6-amino-2-methylpyridin-3-yl)methyl)-3-((2-(difluoromethyl)benzyl)amino)-4-oxo-4,6,7,8-tetrahydropyrrolo[1,2-a]pyrimidine-6-carboxamide, di-trifluoroacetate]",,< 500,500 to 2500
